How the values were obtained:
Assay type in all cases: cell-based, human
[1] = test system: intracellular ROS in HepG2; assay: Intracellular ROS, H2DCF-DA assay, flow cytometry
Experimental: Intracellular levels of reactive oxygen species (ROS) were measured using the cell-permeant 2’,7’ dichlorodihydrofluorescein diacetate (H2DCF-DA) probe (Molecular Probes, Eugene, OR, USA), which permeates living cells and is deacetylated and oxidized upon ROS exposure inside the cell, forming the fluorescent 2’,7’-dichlorofluorescein (DCF).
HepG2 cells were cultured in a 6-well cell culture plate at a density of 2 × 10^5 cells per well 24 h before starting the treatment with R2-viniferin. The medium was renewed and cells were incubated with R2-viniferin as described above. After treatment, cells were washed and incubated with 20 μM H2DCF-DA or 4 μM MitoSOX™ for 30 min at 37 °C in the dark. The probe solution was then withdrawn and, after washing with PBS, the cells were trypsinized. The fluorescence intensity from living cells was measured by flow cytometry (DCF λex = 485/20 and λem = 528/20, MitoSOX λex = 485/20 and λem = 620/20) in a Beckman Coulter Gallios Flow cytometer in the General Research Services SGIker of the UPV/EHU. At least 10,000 events were detected. Data obtained from flow cytometry were analyzed using Summit 4.3 software (Dako, Hovedstaden, Denmark). Intracellular ROS and mitochondrial O2^− were expressed as the percentage of the fluorescence intensity in control cells at the same time of incubation.

Hep3B = assay: Cell cycle analysis by flow cytometry (propidium iodide), Hep3B; conditions: 10 µM; for Cell cycle G0/G1 (percentage of cells) / Cell cycle G2/M (percentage of cells) / Cell cycle S (percentage of cells) / SubG0 (percentage of total cells): mean ± SE
Experimental: Exponentially growing cells were seeded in 6-wells plates (200,000 cells HepG2 and 180,000 cells Hep3B) 24 h before R2-viniferin treatment. On the day of treatment, the culture medium was replaced with culture medium containing R2-viniferin or vehicle solution (control).
After a treatment, cells were detached by trypsinization and fixed overnight at 4 °C in 70% ice-cold ethanol diluted in phosphate buffer saline (PBS). The ethanol was then discarded and the cells were washed with ice-cold PBS and finally stained with 25 μg/mL of propidium iodide (Sigma-Aldrich, St Louis, MO, USA) in the presence of 200 μg/mL ribonuclease A (Roche Biochemicals, Indianapolis, IN, USA) for 30 min at room temperature in the dark. Flow cytometry analysis (Beckman Coulter Gallios) was carried out from a total number of 10,000 events acquired in the General Research Services SGIker of the UPV/EHU. Analysis of the data was performed using Summit 4.3 software (Dako, Glostrup, Hovedstaden, Denmark).

HepG2 = assay: Cell viability, crystal violet assay, HepG2; conditions: mean ± standard error
Excerpt: The human hepatoma cell line HepG2 was obtained from the American Tissue Culture Collection (ATCC, Manassas, VA, USA). The human hepatoma cell line Hep3B was obtained from the European Collection of Authenticated Cell Cultures (ECACC, Porton Down, Salisbury, Wiltshire, UK). HH4 non-transformed human hepatocyte cell line (kindly provided by Dr. I. Fabregat, Molecular Oncology, Bellvitge Biomedical Research Institute, Spain) was established as described.
HepG2 and Hep3B cell lines were maintained in Eagle’s Minimum Essential Medium and HH4 cell line was grown in Ham´s F12 Nutrient Mixture (Sigma-Aldrich, St Louis, MO, USA). Both culture media were supplemented with 10% heat inactivated fetal bovine serum, 2 mM L-glutamine and antibiotics (0.1 mg/mL streptomycin and 100 U/mL penicillin) (Sigma-Aldrich, St Louis, MO, USA). Cell cultures were grown in an incubator at 37 °C with 5% CO2 atmosphere. After reaching approximately 80% of confluence, cells were detached in a solution of 0.1% trypsin and 0.04% EDTA and plated as required for further experiments.
Cell lines were seeded into 96-well plates at 5 × 10^3 (HepG2) and 3 × 10^3 (Hep3B and HH4) cells/well 24 h before treatment. Increasing concentrations of the monomer trans-resveratrol, the dimers ampelopsin A and trans-ε-viniferin and the tetramers isohopeaphenol, hopeaphenol, R2-viniferin and R-viniferin were then added and cells were incubated for 24, 48, and 72 h. Stilbenes were dissolved in dimethyl sulfoxide (DMSO), Sigma-Aldrich, St Louis, MO, USA) at a final concentration of 0.01%. The same amount of DMSO was added to control cells. After treatment, the cell viability was determined using the crystal violet assay. The absorbance was recorded at 590 nm in a Synergy HT microplate reader (BioTek, Winooski, VT, USA). Cell viability was calculated as the percentage of viable cells treated with stilbene versus untreated control cells using the following equation: Cell viability (%) = [OD (Treatment) − OD (Blank)]/[OD (Control) − OD (Blank)] × 100. The cytotoxic effect of stilbenes was determined by calculating IC50 values using non-linear regression analysis (GraphPad Prism 6, San Diego, CA, USA).
The statistical package SPSS 19.0 (SPSS Inc. Chicago, IL, USA) was used for data analysis. The results were expressed as mean ± standard error (SE) from at least three experiments. Statistical significance for the differences of the means was estimated by parametric Student’s t-test. Differences between means were considered statistically significant for p < 0.05. IC50 values were derived from fitting the data to a sigmoidal dose-response curve with a three-parameter logistic model using Graph Pad Prism 6.

**Q.** Which results are given for `Oc1ccc([C@H]2c3c(O)cc(O)cc3[C@H]3c4c(cc(O)cc4[C@@H]2c2cc(/C=C/c4cc(O)cc5c4[C@H](c4cc(O)cc(O)c4)[C@@H](c4ccc(O)cc4)O5)ccc2O)O[C@@H]3c2ccc(O)cc2)cc1` [R2-Viniferin]?
**A.** Effect on intracellular ROS concentration ([1]; HepG2, 5 and 10 µM, from the first time assayed): increased the intracellular ROS concentration dose-dependently; Effect on intracellular ROS ([1]; HepG2, highest concentration used (10 µM)): ROS remained significantly elevated up to 72 h; Effect on cell cycle (Hep3B): did not alter cell cycle; Cell cycle G0/G1 (percentage of cells) (Hep3B; 24 h): 63.6 ± 8.0%; Cell cycle G2/M (percentage of cells) (Hep3B; 24 h): 20.7 ± 6.1%; Cell cycle S (percentage of cells) (Hep3B; 24 h): 15.7 ± 3.7%; SubG0 (percentage of total cells) (Hep3B; 24 h): 2.0 ± 0.6%; Cell cycle G0/G1 (percentage of cells) (Hep3B; 48 h): 73.7 ± 3.4%; Cell cycle G2/M (percentage of cells) (Hep3B; 48 h): 16.5 ± 2.0%; Cell cycle S (percentage of cells) (Hep3B; 48 h): 10.4 ± 1.6%; SubG0 (percentage of total cells) (Hep3B; 48 h): 1.8 ± 0.4%; Cell cycle G0/G1 (percentage of cells) (Hep3B; 72 h): 75.5 ± 3.9%; Cell cycle G2/M (percentage of cells) (Hep3B; 72 h): 14.7 ± 2.9%; Cell cycle S (percentage of cells) (Hep3B; 72 h): 9.8 ± 1.2%; SubG0 (percentage of total cells) (Hep3B; 72 h): 3.3 ± 0.7%; IC50 (HepG2; 72 h): 9.7 ± 0.4 µM; IC50 (HepG2; Homo sapiens, HepG2, 24 h, 24 h): > 200 µM; IC50 (HepG2; Homo sapiens, HepG2, 48 h, 48 h): 10.2 ± 8.2 µM; IC50 (HepG2; Homo sapiens, HepG2, 72 h, 72 h): < 10 µM

Source: article PMC7346113, “Screening of Natural Stilbene Oligomers from Vitis vinifera for Anticancer Activity on Human Hepatocellular Carcinoma Cells” (Antioxidants, 2020)
